Reference: the CheMixHub ionic liquid set

Experiment: xn = mol fraction of the nth substance listed

CCCC[n+]1ccn(C)c1.O=S(=O)([O-])C(F)(F)F + CCCC[n+]1ccn(C)c1.F[P-](F)(F)(F)(F)F
100 kPa
Conditions	viscosity [mPa·s]
293.15 K, x2 = 0.006063	91.5
293.15 K, x2 = 0.15	109.5
293.15 K, x2 = 0.1999	116.6
293.15 K, x2 = 0.7	218
298.15 K, x2 = 0.08059	83.4
303.15 K, x2 = 0.08059	69.3
303.15 K, x2 = 0.1	70.8
308.15 K, x2 = 0.15	60
308.15 K, x2 = 0.1999	63.1
313.15 K, x2 = 0.1999	50.6
313.15 K, x2 = 0.5002	66.8
313.15 K, x2 = 0.7995	88.2
318.15 K, x2 = 0.15	40
318.15 K, x2 = 0.1999	41.75
318.15 K, x2 = 0.3	45.51
318.15 K, x2 = 0.8997	76.3
323.15 K, x2 = 0.3	38.24
323.15 K, x2 = 0.8997	62.3
328.15 K, x2 = 0.15	29.81
328.15 K, x2 = 0.1999	30.97

F[P-](F)(F)(F)(F)F.[Li+] + CCCC[n+]1ccn(C)c1.N#C[N-]C#N
electrical conductivity [S/m], 101 kPa
Conditions	x2 = 0.8823	x2 = 0.8953	x2 = 0.9172	x2 = 0.9531	x2 = 0.9799
288.15 K	–	0.307	0.39	0.482	0.585
298.15 K	0.488	0.522	0.633	0.771	0.909
333.15 K	1.63	1.68	1.97	2.24	2.58

CCCCO + CCCC[n+]1ccn(C)c1.N#C[S-]
101 kPa, x1 = 1
Conditions	viscosity [mPa·s]
328.15 K	1.25
348.15 K	0.846

[Cl-].[Li+] + CCCC[n+]1ccn(C)c1.N#C[S-] + CN1CCCC1=O
298.15 K, 101 kPa
Conditions	viscosity [mPa·s]
x2 = 0, x1 = 0.03819	2.63
x2 = 0, x1 = 0.07228	3.56
x2 = 0, x1 = 0.1042	4.958

CCCCO + CCCC[n+]1ccn(C)c1.O=S(=O)([N-]S(=O)(=O)C(F)(F)F)C(F)(F)F
Conditions	viscosity [mPa·s]
298 K, 100 kPa, x2 = 0	2.578

CCCC[n+]1ccn(C)c1.COP(=O)([O-])OC + CCCC[n+]1ccn(C)c1.O=S(=O)([N-]S(=O)(=O)C(F)(F)F)C(F)(F)F
Conditions	viscosity [mPa·s]
288.15 K, 100 kPa, x2 = 0	1455

O=C1CCCO1 + CCCC[n+]1ccn(C)c1.O=S(=O)([N-]S(=O)(=O)C(F)(F)F)C(F)(F)F
100 kPa
Conditions	electrical conductivity [S/m]	viscosity [mPa·s]
293.15 K, x1 = 0.2992	0.457	29.86
293.15 K, x1 = 0.8496	1.39	–
293.15 K, x2 = 0.0151	0.411	–
298.15 K, x1 = 0.5021	0.744	14.84
303.15 K, x1 = 0.2992	0.642	20.99
308.15 K, x1 = 0.5979	1.27	8.18
308.15 K, x1 = 0.7999	1.81	4.12
308.15 K, x1 = 0.8496	1.85	–
308.15 K, x1 = 1	0.001	1.52
313.15 K, x1 = 0.1984	0.753	18.48
313.15 K, x1 = 0.5979	1.45	7.26
313.15 K, x1 = 0.95	1.42	–
313.15 K, x1 = 1	0.001	1.42
313.15 K, x2 = 0.0151	0.542	–
318.15 K, x1 = 0.7999	2.15	3.44
318.15 K, x1 = 0.8496	2.17	–
318.15 K, x1 = 0.8995	2.02	2.35
318.15 K, x1 = 1	0.001	1.35
323.15 K, x1 = 0.7999	2.37	3.11
323.15 K, x1 = 1	0.002	1.3

CCCCO + CCCC[n+]1ccn(C)c1.O=S(=O)([O-])C(F)(F)F
100 kPa, x2 = 0
Conditions	viscosity [mPa·s]
298.15 K	2.61
303.15 K	2.31
308.15 K	2.07
313.15 K	1.85
318.15 K	1.66
323.15 K	1.5
